Assay results reported in paper PMC10820135, “Pharmacokinetic, Tissue Distribution, Metabolite, and Toxicity Evaluation of the Matrine Derivative, (6aS, 10S, 11aR, 11bR, 11cS)-10-Methylaminododecahydro-3a, 7a-Diaza-benzo (de) Anthracene-8-thione” (Molecules, 2024).
Entries after “also recorded” stand apart in the source; their conditions may differ.

Assay: Tissue distribution of MASM in rats
Assay type: in vivo, Sprague-Dawley rats
Details: rat
Method: UHPLC analysis was performed using a Thermo Accela AS system, employing an ACQUITY UPLC®BEH C18 (Waters Corporation, Wexfords, Ireland) (1.7 µm, 2.1 × 100 mm) column and a binary solvent system consisting of water containing 0.1% formic acid as mobile phase A and acetonitrile as mobile phase B. For pharmacokinetic evaluation, the gradient elution was set as follows: 97% A from 0 to 2 min, 97–70% A from 2 to 3 min, 70–20% A from 3 to 3.5 min, 20% A from 3.5 to 3.6 min, 20–97% A from 3.6 to 3.7 min, and 97% A from 3.7 to 5 min. For the metabolic test, the gradient elution in full scan mode was set as follows: 97% A from 0 to 2 min, 97–70% A from 2 to 4 min, 70–20% A from 4 to 6 min, 20% A from 6 to 7 min, 20–97% A from 7 to 8 min, and 97% A from 8 to 10 min. The flow rate was 0.2 mL/min, with a temperature of 40 °C maintained and an injection volume of 5 μL. The QQQ-MS/MS analysis was conducted using a Thermo TSQ QUANTUM ACCESS MAX system equipped with an electrospray ionization (ESI) source. The spray voltages were set at 4.0 kV and 2.5 kV for positive and negative ion modes, respectively; capillary and vaporizer temperatures were 320 °C and 350 °C, respectively; sheath and aux gas pressures were 35 and 10 psi, respectively.
A total of 36 Sprague-Dawley rats (18 male and 18 female) were randomly and equally assigned to 6 groups, with 3 male and 3 female rats in each group. Among these groups, 3 groups were administrated MASM intragastrically at a dosage of 60 mg/kg, while the remaining 3 groups received intraperitoneal administration of MASM at a dosage of 80 mg/kg. The rats in each group were euthanized at three different time points: 1 h, 2 h, and 24 h after administration. Subsequently, various tissues, including the heart, liver, spleen, lung, kidney, stomach, muscle, and brain, were promptly collected and weighed. These tissues were then homogenized using acetonitrile at a ratio of 1:10 and stored at a temperature of −80 °C until further analysis. During the analysis of the tissue sample, the protein was precipitated following the tissues: acetonitrile with a ratio of 1:3 and a volume of 5μL of the resulting supernatant were injected. The UHPLC-QQQ-MS/MS analysis method that was developed, underwent a comprehensive validation process, and the concentration of MASM in each tissue was determined using linear regression equations. Bar graphs were generated by applying Prism 8.0 (GraphPad Software Inc., San Diego, CA, USA).

CNC1CC(=S)N2CC3CCCN4CCCC(C34)C2C1 [MASM, (6aS, 10S, 11aR, 11bR, 11cS)-10-methylaminododecahydro-3a, 7a-diaza-benzo (de) anthracene-8-thione]
tissues with concentration surpassing other organs at 1 h (following the initial hour): liver, kidney, and intestine | time at which Cmax in liver tissue was achieved (i.g. 60 mg/kg and i.p. 80 mg/kg): ≤ 1 h | tissue with higher concentration than other organs at 2 h and 24 h (i.g. 60 mg/kg or i.p. 80 mg/kg): spleen and intestine | tissues of main distribution / higher accumulation (i.g. 60 mg/kg or i.p. 80 mg/kg, 1, 2, 24 h): primarily distributed in the liver, kidney, and spleen tissues | detection in tissues (heart, liver, spleen, lung, kidney, brain, muscle, intestine, stomach): detected in all rat tissues including the brain; also recorded: detected in various tissues at 1, 2, and 24 h after administration
